# “And” between values parts separate entries of the source, which are not always exact repeats. Equal values may be shown once. “Also recorded” adds a separate entry of the source.
# What was measured:
# [1] = tested on: CYP3A; assay: Clinical DDI study: elagolix 150 mg once daily effect on midazolam; conditions: male participants
# [2] = tested on: CYP2B6; assay: Clinical DDI study: elagolix effect on bupropion; type: in vivo, human; conditions: for Change in AUC values / Increase in Cmax: single dose bupropion after 10 days of elagolix 300 mg twice daily
# [3] = target: P‐gp (Homo sapiens, UniProt P08183); assay: Clinical DDI study: elagolix effect on digoxin
# Sequence of P‐gp (Homo sapiens, UniProt P08183) (P08183 whole entry): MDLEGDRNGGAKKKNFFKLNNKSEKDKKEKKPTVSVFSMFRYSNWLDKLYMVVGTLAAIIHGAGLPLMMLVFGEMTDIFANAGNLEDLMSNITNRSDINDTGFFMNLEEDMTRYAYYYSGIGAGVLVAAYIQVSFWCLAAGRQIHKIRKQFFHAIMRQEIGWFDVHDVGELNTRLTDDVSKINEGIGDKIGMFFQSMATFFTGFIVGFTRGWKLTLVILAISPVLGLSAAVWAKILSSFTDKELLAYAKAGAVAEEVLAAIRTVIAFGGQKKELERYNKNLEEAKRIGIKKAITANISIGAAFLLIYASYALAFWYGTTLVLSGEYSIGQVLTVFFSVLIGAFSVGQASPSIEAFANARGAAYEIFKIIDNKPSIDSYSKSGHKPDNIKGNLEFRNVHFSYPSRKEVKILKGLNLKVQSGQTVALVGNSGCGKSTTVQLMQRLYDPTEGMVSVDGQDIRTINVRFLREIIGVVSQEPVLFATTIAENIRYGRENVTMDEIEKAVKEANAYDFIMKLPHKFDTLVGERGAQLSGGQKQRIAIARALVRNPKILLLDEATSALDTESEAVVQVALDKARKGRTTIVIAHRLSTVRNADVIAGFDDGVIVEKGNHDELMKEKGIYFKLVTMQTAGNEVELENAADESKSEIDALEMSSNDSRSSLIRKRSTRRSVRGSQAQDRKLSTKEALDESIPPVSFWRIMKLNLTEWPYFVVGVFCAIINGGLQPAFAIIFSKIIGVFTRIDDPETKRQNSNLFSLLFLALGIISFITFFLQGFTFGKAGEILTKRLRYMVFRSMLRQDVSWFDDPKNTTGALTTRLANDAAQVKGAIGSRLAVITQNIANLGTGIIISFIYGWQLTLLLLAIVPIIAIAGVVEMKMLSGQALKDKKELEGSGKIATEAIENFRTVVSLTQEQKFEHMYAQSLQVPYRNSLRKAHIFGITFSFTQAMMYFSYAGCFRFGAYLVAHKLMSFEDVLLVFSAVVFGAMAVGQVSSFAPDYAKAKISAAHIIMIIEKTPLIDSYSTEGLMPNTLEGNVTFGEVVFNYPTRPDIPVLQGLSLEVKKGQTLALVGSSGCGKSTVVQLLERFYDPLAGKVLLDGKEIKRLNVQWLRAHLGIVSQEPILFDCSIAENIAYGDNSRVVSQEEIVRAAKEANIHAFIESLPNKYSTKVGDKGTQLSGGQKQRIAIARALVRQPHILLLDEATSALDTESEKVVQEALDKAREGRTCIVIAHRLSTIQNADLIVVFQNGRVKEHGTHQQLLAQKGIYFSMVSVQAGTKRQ
# [4] = Safety and tolerability in the 9 phase 1 DDI studies; type: in vivo, human; conditions: for Participants reporting 1 or more TEAE: ketoconazole study
# [5] = tested on: CYP2C19; conditions: cited from earlier work
# [6] = tested on: CYP3A4; conditions: cited from earlier work
# [7] = Clinical DDI study: elagolix and fluconazole
# [8] = tested on: CYP3A and P‐gp; assay: Clinical DDI study: ketoconazole effect on elagolix; type: in vivo, human
# [9] = Clinical DDI study: elagolix and sertraline
# [10] = tested on: P‐gp; conditions: cited from earlier work
# [11] = tested on: CYP3A; assay: Clinical DDI study: elagolix 300 mg twice daily effect on midazolam
# [12] = cited from earlier work
# [13] = tested on: OATP1B1; conditions: cited from earlier work
# [14] = tested on: CYP2C19; conditions: cited from earlier work; remark: listed apart in the source
# [15] = background; cited from earlier work
# [16] = tested on: OATP1B1, CYP3A and P‐gp; assay: Clinical DDI study: single and multiple dose rifampin effect on elagolix
# [17] = tested on: OATP1B1/B3 and BCRP; assay: Clinical DDI study: elagolix and rosuvastatin; type: in vivo, human; conditions: for Increase in rosuvastatin Cmax: first (single) dose of elagolix 300 mg
# [18] = tested on: breast cancer resistance protein (BCRP); conditions: cited from earlier work
# [19] = either single dose or multiple doses (10 days) of elagolix 200 mg twice daily
# [20] = multiple doses of rifampin (dosing for 10 days) vs elagolix alone
# [21] = first dose of elagolix 300 mg twice daily, female participants
# [22] = multiple doses of elagolix 300 mg twice daily
structure (smiles),measurement,setting,value
"OCc1ncc2n1-c1ccc(Cl)cc1C(c1ccccc1F)=NC2 [1‐OH‐midazolam, 1-hydroxymidazolam]",Increase in 1‐OH‐midazolam exposures,[1]; elagolix 150 mg once daily,up to 11%
"C[C@H]1NC(C)(C)CO[C@]1(O)c1cccc(Cl)c1 [OH‐bupropion, hydroxybupropion]",Change in AUC values,[2],≤ 9%
same,Increase in Cmax,[2],32%
CC(NC(C)(C)C)C(=O)c1cccc(Cl)c1 (centres unmarked) [bupropion],Increase in bupropion PK,[2]; elagolix 300 mg twice daily,≤ 25%
same,Change in AUC values,[2],≤ 9%
same,Increase in Cmax,[2],25%
C[C@H]1O[C@@H](O[C@H]2[C@@H](O)C[C@H](O[C@H]3[C@@H](O)C[C@H](O[C@H]4CC[C@@]5(C)[C@H](CC[C@@H]6[C@@H]5C[C@@H](O)[C@]5(C)[C@@H](C7=CC(=O)OC7)CC[C@]65O)C4)O[C@@H]3C)O[C@@H]2C)C[C@H](O)[C@@H]1O [digoxin],Increase in digoxin AUC,[3]; [19],~30%
same,Increase in digoxin Cmax,[3]; [19],approximately 70%
same,Digoxin t½ alone vs in the presence of elagolix,[3]; elagolix 200 mg twice daily,similar
"COc1cccc(-c2c(C)n(Cc3c(F)cccc3C(F)(F)F)c(=O)n(C[C@H](NCCCC(=O)O)c3ccccc3)c2=O)c1F [elagolix, sodium R‐(+)‐4‐{2‐[5‐(2‐fluoro‐3‐methoxyphenyl)‐3‐(2‐fluoro‐6‐[trifluoromethyl]benzyl)‐4 ‐methyl‐2,6‐dioxo‐3,6‐dihydro‐2H‐pyrimidin‐1‐yl]‐1‐phenylethylamino}butyrate]","Changes in vital sign values, ECG parameters, physical examination findings, laboratory measurements",[4]; across all studies,no clinically significant changes
same,Most common adverse events assessed as mild and reasonably related to elagolix,[4]; across all studies,"hot flush, headache, nausea, and amenorrhea"
same,Severe adverse events (all assessed as not related to elagolix),[4]; across all studies,3
same,Tolerability,"[4]; elagolix and coadministered drugs across regimens, 144 female and male participants, 9 phase 1 studies",generally well tolerated
same,Participants reporting 1 or more TEAE,[4]; elagolix‐alone portion of the test regimen,zero
same,Classification of elagolix as inhibitor of CYP2C19,[5],weak inhibitor
same,In vitro effect on CYP3A4,[6],inducer
same,In vitro metabolism (enzyme),[6],metabolized primarily by the cytochrome P450 (CYP) enzyme CYP3A4
same,Increase in elagolix steady‐state Cmax,"[7]; 10 days of elagolix 300 mg twice daily, single dose of fluconazole 200 mg",approximately 30%
same,Classification of elagolix as CYP3A (or P‐gp) substrate,[8]; based on ketoconazole study vs FDA criterion (≥5‐fold increase),not considered a sensitive CYP3A substrate
same,Elagolix half‐life with vs without ketoconazole coadministration,"[8]; elagolix 150 mg single dose, ketoconazole 400 mg once daily",similar
same,Effect of sertraline on elagolix plasma exposures (Cmax and AUC),"[9]; single‐dose 300‐mg elagolix, sertraline 25 mg once daily for 10 days",not affected; also recorded: did not affect
same,In vitro effect on P‐gp,[10],inhibitor
same,Classification of elagolix as inducer of CYP3A,"[11]; depending on the dose administered (150 mg once daily, 300 mg twice daily), midazolam studies",weak or moderate inducer; also recorded: weak to moderate inducer
same,Excreted unchanged in urine,[12],less than 3%
same,Plasma exposure of elagolix metabolites relative to the parent compound,[12],less than 3%
same,Dose proportionality of exposure,[12]; from 100 to 400 mg twice daily,approximately dose proportional
same,Apparent terminal‐phase elimination half‐life (t½),[12]; oral,4 to 6 h
same,Time to mean maximum observed plasma concentration (Tmax),[12]; oral,approximately 1 hour
same,In vitro effect on OATP1B1,[13],inhibitor
same,Classification of elagolix as inhibitor of efflux transporter P‐gp,[3]; mechanistic clinical studies,weak inhibitor
same,In vitro effect on CYP2C19,[14],inhibitor
same,Common adverse reactions associated with elagolix,[15],"hot flush, headache, and nausea"
same,Increase in elagolix exposures (Cmax and AUC),[16]; multiple days of rifampin dosing,≤ 2 fold
same,Increase in elagolix AUC,[16]; [20],~2 fold and 1.7 fold
same,Increase in elagolix Cmax,[16]; [20],2.0 fold
same,Increase in elagolix exposures (Cmax and AUC),[16]; single dose of rifampin,< 6 fold and > 4.4 fold
same,Increase in elagolix Cmax,[16]; with a single dose of rifampin 600 mg vs elagolix alone,4.4 fold
same,Effect of rosuvastatin on elagolix exposure,"[17]; rosuvastatin 20 mg once daily, elagolix 300 mg twice daily",no effect
same,In vitro effect on BCRP,[18],inhibitor
OC(Cn1cncn1)(Cn1cncn1)c1ccc(F)cc1F [fluconazole],Changes in exposure on coadministration of elagolix with fluconazole,[7]; abstract summary,No clinically significant changes in exposure
same,Effect of elagolix on fluconazole exposures (Cmax and AUC),"[7]; elagolix 300 mg twice daily, fluconazole 200 mg single dose",not affected; also recorded: did not affect
"CC(=O)N1CCN(c2ccc(OCC3COC(Cn4ccnc4)(c4ccc(Cl)cc4Cl)O3)cc2)CC1 (centres unmarked) [ketoconazole, reference compound]",Participants reporting 1 or more TEAE,[4]; ketoconazole‐alone portion of the test regimen,82%
Cc1ncc2n1-c1ccc(Cl)cc1C(c1ccccc1F)=NC2 [midazolam],Increase in midazolam AUC,[11]; [21],~27%
same,Increase in midazolam Cmax,[11]; [21],approximately 18%
same,Decrease in midazolam Cmax,"[11]; multiple doses of elagolix 300 mg twice daily (11 days of dosing), female participants",approximately 44%
same,Decrease in midazolam AUC,[1]; multiple doses of elagolix 150 mg once daily,~35%
same,Decrease in midazolam AUC,[1]; single dose of elagolix 150 mg once daily,approximately 21%
CC(C)c1nc(N(C)S(C)(=O)=O)nc(-c2ccc(F)cc2)c1/C=C/[C@@H](O)C[C@@H](O)CC(=O)O [rosuvastatin],Increase in rosuvastatin Cmax,[17],approximately 67%
same,Increase in rosuvastatin Cmax,[17]; listed as Rosuvastatin,67%
same,Change in rosuvastatin AUC,[17]; first dose of elagolix 300 mg twice daily,no significant change
same,Change in rosuvastatin Cmax (steady state),[17]; [22],not significantly changed; also recorded: no change
"CN[C@H]1CC[C@@H](c2ccc(Cl)c(Cl)c2)c2ccccc21 [sertraline, reference compound]",Changes in exposure on coadministration of elagolix with sertraline,[9]; abstract summary,No clinically significant changes in exposure
same,Increase in sertraline steady‐state Cmax,[9]; [22],34%

# From publication PMC7689813 (Journal of Clinical Pharmacology, 2020)
